HELM strings list units from the 5' end as sugar, base in round brackets, then linkage (d deoxyribose, r ribose, m 2'-O-methyl, p phosphodiester). Strings are as the collection lists them; they lack the last nucleoside at the 3' end of the tested compound. [moe] = 2'-O-(2-methoxyethyl) (MOE); [sp] = phosphorothioate linkage; [m5C] = 5-methylcytosine

This series has as its target GFAP. Put plainly: mouse, dose not given. As to conditions: ASO.
“RNA1{[moe]([m5C])[sp].[moe](T)p.[moe]([m5C])p.[moe](A)p.[moe](G)p.[moe](T)p.d(T)[sp].d(T)[sp].d(T)[sp].d([m5C])[sp].d([m5C])[sp].d(T)[sp].d([m5C])[sp].d([m5C])[sp].d(A)[sp].d(G)[sp].[moe]([m5C])p.[moe](A)[sp].[moe](G)}$$$$ (last 3' nucleoside missing)” had a 3 h FOB score of 2 score 0-7. To “RNA1{[moe](T)[sp].[moe](T)p.[moe](T)p.[moe]([m5C])p.[moe](T)[sp].d([m5C])[sp].d(T)[sp].d([m5C])[sp].d([m5C])[sp].d(T)[sp].d(G)[sp].d(T)[sp].d(T)[sp].d(T)[sp].d([m5C])[sp].[moe](A)p.[moe](G)p.[moe]([m5C])[sp].[moe](A)}$$$$ (last 3' nucleoside missing)” belongs 3 score 0-7; to “RNA1{[moe](T)[sp].[moe](G)p.[moe](A)p.[moe](G)p.[moe](T)[sp].d(T)[sp].d(T)[sp].d([m5C])[sp].d(T)[sp].d(T)[sp].d(G)[sp].d(T)[sp].d(T)[sp].d(A)[sp].d(G)[sp].[moe](T)p.[moe](T)p.[moe](G)[sp].[moe](G)}$$$$ (last 3' nucleoside missing)”, 6 score 0-7.

In the case of “RNA1{[moe](A)[sp].[moe](G)p.[moe](A)p.[moe](G)p.[moe](A)[sp].d(T)[sp].d(G)[sp].d(G)[sp].d(G)[sp].d(T)[sp].d(G)[sp].d(A)[sp].d(G)[sp].d(G)[sp].d(T)[sp].[moe](G)p.[moe](A)p.[moe](G)[sp].[moe](G)}$$$$ (last 3' nucleoside missing)”, the 3 h FOB score was determined as 7 score 0-7.

Regarding “RNA1{[moe](T)[sp].[moe](T)p.[moe](T)p.[moe](G)p.[moe](A)[sp].d(G)[sp].d(A)[sp].d(T)[sp].d(A)[sp].d(T)[sp].d([m5C])[sp].d(T)[sp].d(T)[sp].[moe](G)p.[moe](T)p.[moe](G)[sp].[moe](A)}$$$$ (last 3' nucleoside missing)”, the 3 h FOB score came to 3 score 0-7. Take “RNA1{[moe](T)[sp].[moe]([m5C])p.[moe](T)p.[moe]([m5C])p.[moe](T)[sp].d([m5C])[sp].d([m5C])[sp].d(T)[sp].d(G)[sp].d(T)[sp].d(T)[sp].d(T)[sp].d([m5C])[sp].d(A)[sp].d(G)[sp].[moe]([m5C])p.[moe](A)p.[moe](T)[sp].[moe]([m5C])}$$$$ (last 3' nucleoside missing)”: the 3 h FOB score was 3 score 0-7. As for “RNA1{[moe](A)[sp].[moe](G)p.[moe]([m5C])p.[moe]([m5C])p.[moe](A)[sp].d(G)[sp].d(T)[sp].d(G)[sp].d(T)[sp].d([m5C])[sp].d(T)[sp].d(T)[sp].d([m5C])[sp].d(A)[sp].d([m5C])[sp].[moe](T)p.[moe](T)p.[moe](T)[sp].[moe](G)}$$$$ (last 3' nucleoside missing)”, the figure is 2 score 0-7; as for “RNA1{[moe](T)[sp].[moe](G)p.[moe](T)p.[moe](A)p.d(T)[sp].d(T)[sp].d(A)[sp].d(G)[sp].d(G)[sp].d(A)[sp].d(T)[sp].d([m5C])[sp].d([m5C])[sp].d([m5C])[sp].[moe](A)p.[moe](T)p.[moe]([m5C])p.[moe](T)[sp].[moe](A)}$$$$ (last 3' nucleoside missing)”, 3 score 0-7. Turning to “RNA1{[moe](G)[sp].[moe](G)p.[moe](A)p.[moe](T)p.[moe]([m5C])[sp].d(T)[sp].d([m5C])[sp].d([m5C])[sp].d(T)[sp].d([m5C])[sp].d([m5C])[sp].d(T)[sp].d([m5C])[sp].d([m5C])[sp].d(A)[sp].[moe](G)p.[moe]([m5C])p.[moe](G)[sp].[moe](A)}$$$$ (last 3' nucleoside missing)”, the 3 h FOB score is 0 score 0-7. To “RNA1{[moe](T)[sp].[moe](G)p.[moe]([m5C])p.[moe]([m5C])p.[moe](A)p.d(T)[sp].d(T)[sp].d(T)[sp].d(A)[sp].d(T)[sp].d([m5C])[sp].d(T)[sp].d(G)[sp].d(T)[sp].d(G)[sp].[moe]([m5C])p.[moe](T)p.[moe](T)[sp].[moe](T)}$$$$ (last 3' nucleoside missing)” belongs 1 score 0-7; to “RNA1{[moe](T)[sp].[moe]([m5C])p.[moe](T)p.[moe](G)p.[moe]([m5C])[sp].d([m5C])[sp].d(A)[sp].d(T)[sp].d(T)[sp].d(T)[sp].d(A)[sp].d(T)[sp].d([m5C])[sp].[moe](T)p.[moe](G)p.[moe](T)[sp].[moe](G)}$$$$ (last 3' nucleoside missing)”, 3 score 0-7.

The substance “RNA1{[moe](T)[sp].[moe]([m5C])p.[moe](A)p.[moe]([m5C])p.[moe](A)p.d(T)[sp].d(T)[sp].d([m5C])[sp].d(A)[sp].d([m5C])[sp].d(T)[sp].d(A)[sp].d(A)[sp].d(T)[sp].d(A)[sp].[moe](T)p.[moe](T)p.[moe](T)[sp].[moe](A)}$$$$ (last 3' nucleoside missing)” came in with a 3 h FOB score of 0 score 0-7.

For the substance “RNA1{[moe]([m5C])[sp].[moe]([m5C])p.[moe](T)p.[moe](T)p.[moe](G)p.d(T)[sp].d(G)[sp].d(A)[sp].d(T)[sp].d(T)[sp].d(T)[sp].d(T)[sp].d([m5C])[sp].d([m5C])[sp].d([m5C])[sp].[moe]([m5C])p.[moe](G)p.[moe](T)[sp].[moe]([m5C])}$$$$ (last 3' nucleoside missing)”, the 3 h FOB score was determined as 0 score 0-7. “RNA1{[moe](G)[sp].[moe](G)p.[moe](T)p.[moe](T)p.[moe](G)[sp].d(G)[sp].d(T)[sp].d(T)[sp].d(T)[sp].d([m5C])[sp].d(A)[sp].d(T)[sp].d([m5C])[sp].d([m5C])[sp].d(T)[sp].[moe](G)p.[moe](G)p.[moe](A)[sp].[moe](G)}$$$$ (last 3' nucleoside missing)” showed a 3 h FOB score of 3 score 0-7. To “RNA1{[moe]([m5C])[sp].[moe](T)p.[moe](A)p.[moe](G)p.[moe](T)p.[moe]([m5C])p.d(A)[sp].d(G)[sp].d([m5C])[sp].d([m5C])[sp].d(T)[sp].d(G)[sp].d(G)[sp].d(T)[sp].d(T)[sp].d(A)[sp].[moe](G)p.[moe]([m5C])[sp].[moe]([m5C])}$$$$ (last 3' nucleoside missing)” belongs 4 score 0-7; to “RNA1{[moe]([m5C])[sp].[moe](A)p.[moe](G)p.[moe]([m5C])p.d([m5C])[sp].d(T)[sp].d(G)[sp].d(G)[sp].d(T)[sp].d(T)[sp].d(A)[sp].d(G)[sp].d([m5C])[sp].d([m5C])[sp].[moe](T)p.[moe](T)p.[moe](T)p.[moe]([m5C])[sp].[moe](T)}$$$$ (last 3' nucleoside missing)”, 4 score 0-7; to “RNA1{[moe](A)[sp].[moe](G)p.[moe]([m5C])p.[moe](A)p.[moe](T)[sp].d(T)[sp].d(T)[sp].d(G)[sp].d(T)[sp].d([m5C])[sp].d(T)[sp].d(T)[sp].d(T)[sp].d(A)[sp].d(T)[sp].[moe](T)p.[moe](T)p.[moe](T)[sp].[moe](T)}$$$$ (last 3' nucleoside missing)”, 1 score 0-7.

The substance “RNA1{[moe](G)[sp].[moe]([m5C])p.[moe](G)p.[moe](A)p.[moe](G)[sp].d([m5C])[sp].d(G)[sp].d(G)[sp].d(A)[sp].d(G)[sp].d(G)[sp].d([m5C])[sp].d([m5C])[sp].d(T)[sp].d(G)[sp].[moe](G)p.[moe](G)p.[moe](T)[sp].[moe](G)}$$$$ (last 3' nucleoside missing)” showed a 3 h FOB score of 6 score 0-7.

Source of the values: the OligoGym collection.
